Results as given in the supplement of paper PMC9938120.

Key:
Test in all cases: drug sensitivity score (DSS3, normalised partial AUC of % inhibition dose-response) (DSS (score)); higher = more sensitive (stronger inhibition of viability); extreme values may be limits of the assay
Conditions in all cases: 72 h; library: FO5A; assay format: 2D, 384-well, CellTiter-Glo
FMOC02_1 = tested on: FMOC02_1 (patient-derived low-grade serous ovarian cancer cells)
Procedure, shortened: (§1)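 Patient-derived ovarian cancer cells (early passage, under 10) were dispensed onto 384-well flat clear-bottom plates pre-plated with compounds at five concentrations covering a 10,000-fold range. Plates were incubated 72 h at 37 °C, 5% CO2, and viability was read with CellTiter-Glo. Data were processed in Breeze. The drug sensitivity score (DSS3) is a partial area under the percent-inhibition dose-response curve, divided by the log of the upper asymptote; higher means more sensitive.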

FMOC02_2 = tested on: FMOC02_2 (patient-derived low-grade serous ovarian cancer cells)
Procedure, shortened: as §1

FMOC02_3 = tested on: FMOC02_3 (patient-derived low-grade serous ovarian cancer cells)
Procedure, shortened: as §1

FMOC03 = tested on: FMOC03 (patient-derived mucinous ovarian cancer cells)
Procedure, shortened: as §1

FMOC04 = tested on: FMOC04 (patient-derived high-grade serous ovarian cancer cells)
Procedure, shortened: as §1

FMOC06 = tested on: FMOC06 (patient-derived mucinous ovarian cancer cells)
Procedure, shortened: as §1

FMOC09 = tested on: FMOC09 (patient-derived high-grade serous ovarian cancer cells)
Procedure, shortened: as §1

FMOC11 = tested on: FMOC11 (patient-derived high-grade serous ovarian cancer cells)
Procedure, shortened: as §1

FMOC14 = tested on: FMOC14 (patient-derived high-grade serous ovarian cancer cells)
Procedure, shortened: as §1

FMOC17 = tested on: FMOC17 (patient-derived low-grade serous ovarian cancer cells)
Procedure, shortened: as §1

FMOC22 = tested on: FMOC22 (patient-derived mucinous ovarian cancer cells)
Procedure, shortened: as §1

FMOC24 = tested on: FMOC24 (patient-derived high-grade serous ovarian cancer cells)
Procedure, shortened: as §1

FMOC25_2 = tested on: FMOC25_2 (patient-derived low-grade serous ovarian cancer cells)
Procedure, shortened: as §1

FMOC27 = tested on: FMOC27 (patient-derived low-grade serous ovarian cancer cells)
Procedure, shortened: as §1

FMOC28 = tested on: FMOC28 (patient-derived low-grade serous ovarian cancer cells)
Procedure, shortened: as §1

Row | SMILES | drug sensitivity score (FMOC02_1) | drug sensitivity score (FMOC02_2) | drug sensitivity score (FMOC02_3) | drug sensitivity score (FMOC03) | drug sensitivity score (FMOC04) | drug sensitivity score (FMOC06) | drug sensitivity score (FMOC09) | drug sensitivity score (FMOC11) | drug sensitivity score (FMOC14) | drug sensitivity score (FMOC17) | drug sensitivity score (FMOC22) | drug sensitivity score (FMOC24) | drug sensitivity score (FMOC25_2) | drug sensitivity score (FMOC27) | drug sensitivity score (FMOC28)
1 | C=CC(=O)Nc1cccc(Oc2nc(Nc3ccc(N4CCN(C)CC4)cc3)nc3ccsc23)c1 [Olmutinib] | 2.3 | 2.1 | 2.3 | 0.8 | 0.05 | 0.2 | 3.5 | 0.4 | 0 | 2.6 | 0 | 0 | 1.5 | 2.4 | 1.7
2 | CCc1nc(C(N)=O)c(Nc2ccc(N3CCC(N4CCN(C)CC4)CC3)c(OC)c2)nc1NC1CCOCC1 [Gilteritinib] | 4.2 | 3.2 | 4.5 | 0.1 | 1.1 | 4.5 | 1.7 | 1.9 | 0 | 1.7 | 0.1 | 0.1 | 4.4 | 0 | 0.5
3 | CC[C@]12C=CCN3CC[C@@]4(c5cc([C@@]6(C(=O)OC)C[C@@H]7C[C@@H](C(C)(F)F)CN(Cc8c6[nH]c6ccccc86)C7)c(OC)cc5N(C)[C@H]4[C@@](O)(C(=O)OC)[C@@H]1OC(C)=O)[C@@H]32 [Vinflunine] | 3.6 | 3.2 | 5.8 | 1.7 | 4.1 | 0.8 | 3.6 | 3.4 | 0 | 5.1 | 0.9 | 0 | 3.6 | 0.6 | 1.3
4 | COc1cc(C)c(/C=C/C(C)=C/C=C/C(C)=C/C(=O)O)c(C)c1C [Acitretin] | 0.2 | 0.7 | 3.4 | 0 | 0 | 0.1 | 0 | 2.8 | 0 | 0 | 0 | 0 | 0 | 0 | 0.3
5 | O=C(CCNC(=O)c1ccc(OC(F)(F)F)cc1)N[C@@H]1CCCc2ccccc21 [ML390] | 5.3 | 3 | 4.2 | 4.6 | 2.9 | 0.3 | 0 | 3.6 | 0 | 2 | 4.8 | 0.8 | 6 | 3.4 | 2.2
6 | COC(=O)c1ccc([C@H]2c3[nH]c4ccccc4c3C[C@H](C(=O)OC)N2C(=O)CCl)cc1 [RSL3] | 0 | 0 | 0 | 0 | 0 | 0 | 0 | 0 | 0 | 0 | 0 | 0 | 0 | 0 | 0
7 | CC(C)(O)CNc1nc(Nc2ccnc(C(F)(F)F)c2)nc(-c2cccc(C(F)(F)F)n2)n1 [Enasidenib] | 1.5 | 2.5 | 0 | 1.4 | 0 | 0 | 0 | 0 | 0 | 2.3 | 0 | 0 | 1.7 | 0 | 4.4
8 | COc1cc(OC)cc(N(CCNC(C)C)c2ccc3ncc(-c4cnn(C)c4)nc3c2)c1 [Erdafitinib] | 0 | 0 | 2.1 | 0 | 0 | 0 | 0 | 0.7 | 0 | 0.3 | 0 | 1.1 | 0.4 | 0 | 0
9 | CN1CCC(COc2cnc(-c3cccc(Cn4nc(-c5cccc(C#N)c5)ccc4=O)c3)nc2)CC1 [Tepotinib] | 0.3 | 1.6 | 3.7 | 0.2 | 0.75 | 0 | 0 | 0 | 0 | 0.5 | 0 | 1.9 | 2.3 | 0 | 3.4
10 | O=C(NCc1ccncc1)C12CC3CC(C1)CC(c1ccc(Cl)cc1)(C3)C2 | 2.6 | 3.2 | 5.3 | 4.5 | 2 | 5.6 | 4.2 | 5.8 | 1.6 | 3.1 | 5.2 | 4.7 | 3.1 | 4.1 | 4.8
11 | CCOC(=O)C1=CCCC[C@H]1S(=O)(=O)Nc1ccc(F)cc1Cl [Resatorvid] | 0 | 0 | 0 | 0 | 0 | 0.1 | 0 | 0 | 0 | 0 | 0 | 0 | 0 | 0 | 0
12 | COCCNCc1ccc(-c2cc3nccc(Oc4ccc(NC(=O)C5(C(=O)Nc6ccc(F)cc6)CC5)cc4F)c3s2)nc1 [Sitravatinib] | 2.1 | 1.1 | 2.5 | 0.3 | 0.45 | 1.6 | 1.4 | 1.1 | 1.2 | 2.1 | 0.4 | 5.8 | 2.2 | 2.5 | 1.5
